Test results as given in PubChem BioAssay AID248 (DTP/NCI, 2004).
Values joined by “and” are separate entries in the source; they are usually repeats but may differ in a detail not shown here. Equal values may be shown once. Inconclusive results and toxic doses are left out. Cut-off read from the data, not from the text of the source: active = T/C of 150% or more; inactive = T/C below 125%.

Test system: L1210 leukemia ip in BDF1 mice, survival T/C
Experiment: NCI In Vivo Anticancer Drug Screen. Data for tumor model L1210 Leukemia (intraperitoneal) in B6D2F1 (BDF1) mice
Conditions: endpoint: mean survival time, higher = longer survival
Procedure, shortened: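 Value reflects the ratio of survival in compound-treated mice to survival in vehicle-treated controls, with both groups carrying the same transplanted tumor.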

[1] = dose: 25.0 mg/kg/injection, schedule: Q01DX009 (ip), vehicle: saline
[2] = dose: 50.0 mg/kg/injection, schedule: Q01DX009 (ip), vehicle: saline
[3] = dose: 100.0 mg/kg/injection, schedule: Q04DX003 (ip), vehicle: saline with Tween-80
[4] = dose: 200.0 mg/kg/injection, schedule: Q04DX003 (ip), vehicle: saline with Tween-80
[5] = dose: 400.0 mg/kg/injection, schedule: Q04DX003 (ip), vehicle: saline with Tween-80
[6] = dose: 100.0 mg/kg/injection, schedule: Q01DX009 (ip), vehicle: Klucel (hydroxypropylcellulose) (HPC)
[7] = dose: 100.0 mg/kg/injection, schedule: Q04DX003 (ip), vehicle: Klucel (hydroxypropylcellulose) (HPC)
[8] = dose: 200.0 mg/kg/injection, schedule: Q01DX009 (ip), vehicle: Klucel (hydroxypropylcellulose) (HPC)
[9] = dose: 200.0 mg/kg/injection, schedule: Q04DX003 (ip), vehicle: Klucel (hydroxypropylcellulose) (HPC)
[10] = dose: 400.0 mg/kg/injection, schedule: Q04DX003 (ip), vehicle: Klucel (hydroxypropylcellulose) (HPC)
[11] = dose: 100.0 mg/kg/injection, schedule: Q01DX009 (ip), vehicle: saline with Tween-80
[12] = dose: 200.0 mg/kg/injection, schedule: Q01DX009 (ip), vehicle: saline with Tween-80
[13] = dose: 400.0 mg/kg/injection, schedule: Q01DX009 (ip), vehicle: saline with Tween-80

Measured: T/C

CC(=O)C[N+]12CN3CN(CN(C3)C1)C2
inactive: [1] 96 % of control | dose: 50.0 mg/kg/injection, schedule: Q01DX005 (ip), vehicle: saline 103 % of control | [2] 111 % of control | dose: 100.0 mg/kg/injection, schedule: Q01DX005 (ip), vehicle: saline 103 % of control | dose: 100.0 mg/kg/injection, schedule: Q01DX009 (ip), vehicle: saline 109 % of control | dose: 100.0 mg/kg/injection, schedule: Q04DX002 (ip), vehicle: saline 96 % of control | dose: 200.0 mg/kg/injection, schedule: Q04DX002 (ip), vehicle: saline 107 % of control

CCCNCCCN
inactive: [1] 100 % of control | dose: 25.0 mg/kg/injection, schedule: Q04DX003 (ip), vehicle: saline 93 % of control | [2] 105 % of control | dose: 50.0 mg/kg/injection, schedule: Q04DX003 (ip), vehicle: saline 101 % of control | dose: 100.0 mg/kg/injection, schedule: Q04DX003 (ip), vehicle: saline 94 % of control and 102 % of control | dose: 200.0 mg/kg/injection, schedule: Q04DX003 (ip), vehicle: saline 88 % of control

Cc1nnc(NS(=O)(=O)c2ccc(N=Nc3c(N)n(C)c(=O)n(C)c3=O)cc2)s1
inactive: dose: 100.0 mg/kg/injection, schedule: Q01DX001 (ip), vehicle: carboxymethylcellulose (CMC) 101 % of control | dose: 200.0 mg/kg/injection, schedule: Q01DX001 (ip), vehicle: carboxymethylcellulose (CMC) 95 % of control | dose: 400.0 mg/kg/injection, schedule: Q01DX001 (ip), vehicle: carboxymethylcellulose (CMC) 89 % of control

CCCCCCCCCCSCCCCCCCCSCCCCCCCCCC
inactive: dose: 100.0 mg/kg/injection, schedule: Q01DX001 (ip), vehicle: Klucel (hydroxypropylcellulose) (HPC) 94 % of control | dose: 200.0 mg/kg/injection, schedule: Q01DX001 (ip), vehicle: Klucel (hydroxypropylcellulose) (HPC) 87 % of control | dose: 400.0 mg/kg/injection, schedule: Q01DX001 (ip), vehicle: Klucel (hydroxypropylcellulose) (HPC) 96 % of control

Nc1ccc(SS(N)(=O)=O)cc1
inactive: dose: 100.0 mg/kg/injection, schedule: Q01DX001 (ip), vehicle: saline 98 % of control | dose: 200.0 mg/kg/injection, schedule: Q01DX001 (ip), vehicle: saline 98 % of control

Cc1ncc(CO)c(/C=N/OCc2nnc(Nc3ccccc3)s2)c1O
inactive: [3] 92 % of control | [4] 101 % of control | [5] 106 % of control

CC1CCCC(CN=Cc2ccc(O)cc2O)[N-]1.CC1CCCC(CN=Cc2ccc(O)cc2O)[N-]1.[Ni+2] (stereo not drawn)
inactive: dose: 25.0 mg/kg/injection, schedule: Q04DX003 (ip), vehicle: saline with Tween-80 101 % of control | dose: 50.0 mg/kg/injection, schedule: Q04DX003 (ip), vehicle: saline with Tween-80 103 % of control | [3] 98 % of control

O=S1(=O)C=C(Br)c2ccccc21
inactive: [6] 101 % of control | [7] 91 % of control | [8] 91 % of control | [9] 96 % of control | [10] 90 % of control

C[n+]1c(-c2ccc(Cl)c(Cl)c2)c2cc(N)ccc2c2ccccc21
inactive: dose: 3.12 mg/kg/injection, schedule: Q01DX009 (ip), vehicle: water 102 % of control | dose: 6.25 mg/kg/injection, schedule: Q01DX009 (ip), vehicle: water 110 % of control | dose: 12.5 mg/kg/injection, schedule: Q01DX009 (ip), vehicle: water 104 % of control | dose: 12.5 mg/kg/injection, schedule: Q04DX003 (ip), vehicle: water 105 % of control | dose: 25.0 mg/kg/injection, schedule: Q04DX003 (ip), vehicle: water 93 % of control

COc1ccc(-c2c(C)c(C)[nH]c(=O)c2C(=O)O)c(OCc2ccccc2)c1OC
inactive: [11] 100 % of control | [12] 100 % of control | [13] 97 % of control

Cn1c(O)c(N=NC(=O)Cc2c[nH]c3ccccc23)c2ccccc21
inactive: dose: 100.0 mg/kg/injection, schedule: Q01DX001 (ip), vehicle: other 101 % of control | dose: 200.0 mg/kg/injection, schedule: Q01DX001 (ip), vehicle: other 95 % of control | dose: 400.0 mg/kg/injection, schedule: Q01DX001 (ip), vehicle: other 95 % of control

Cc1c(Cl)cccc1NC(=O)Nc1ccc(S(N)(=O)=O)cc1
inactive: [11] 93 % of control and 97 % of control | dose: 100.0 mg/kg/injection, schedule: Q04DX002 (ip), vehicle: saline with Tween-80 101 % of control and 110 % of control | [3] 100 % of control | [12] 104 % of control and 105 % of control | dose: 200.0 mg/kg/injection, schedule: Q04DX002 (ip), vehicle: saline with Tween-80 101 % of control and 104 % of control | [4] 95 % of control | [13] 93 % of control and 101 % of control | dose: 400.0 mg/kg/injection, schedule: Q04DX002 (ip), vehicle: saline with Tween-80 93 % of control and 95 % of control | [5] 92 % of control

CCC(=O)CC(=O)C(=O)OC
inactive: dose: 75.0 mg/kg/injection, schedule: Q01DX001 (ip), vehicle: saline 102 % of control | dose: 75.0 mg/kg/injection, schedule: Q04DX003 (ip), vehicle: saline 105 % of control | dose: 150.0 mg/kg/injection, schedule: Q01DX001 (ip), vehicle: saline 100 % of control | dose: 150.0 mg/kg/injection, schedule: Q04DX003 (ip), vehicle: saline 103 % of control | dose: 300.0 mg/kg/injection, schedule: Q01DX001 (ip), vehicle: saline 104 % of control | dose: 300.0 mg/kg/injection, schedule: Q04DX003 (ip), vehicle: saline 90 % of control

COC(=O)N1C=CC2C=CC1C(C#N)(C#N)C2(C#N)C#N (stereo not drawn)
inactive: dose: 12.5 mg/kg/injection, schedule: Q04DX002 (ip), vehicle: Klucel (hydroxypropylcellulose) (HPC) 98 % of control | dose: 25.0 mg/kg/injection, schedule: Q04DX002 (ip), vehicle: Klucel (hydroxypropylcellulose) (HPC) 98 % of control | dose: 50.0 mg/kg/injection, schedule: Q04DX002 (ip), vehicle: Klucel (hydroxypropylcellulose) (HPC) 110 % of control

Cc1cc(N(CCCOS(C)(=O)=O)CCCOS(C)(=O)=O)ccc1C=Nc1ccc(-c2csc(COc3ccc(Br)cc3Br)n2)cc1
inactive: [11] 88 % of control | [12] 91 % of control | [13] 96 % of control

CC12CCC3C(CCC4CC5SC5CC43C)C1CCC2O (stereo not drawn)
inactive: dose: 100.0 mg/kg/injection, schedule: Q04DX002 (ip), vehicle: Klucel (hydroxypropylcellulose) (HPC) 108 % of control | dose: 200.0 mg/kg/injection, schedule: Q04DX002 (ip), vehicle: Klucel (hydroxypropylcellulose) (HPC) 111 % of control | dose: 400.0 mg/kg/injection, schedule: Q04DX002 (ip), vehicle: Klucel (hydroxypropylcellulose) (HPC) 101 % of control

O=C(NCc1ccc(S(=O)(=O)F)cc1)Oc1ccc([N+](=O)[O-])cc1
inactive: dose: 25.0 mg/kg/injection, schedule: Q01DX009 (ip), vehicle: other 100 % of control | dose: 50.0 mg/kg/injection, schedule: Q01DX009 (ip), vehicle: other 88 % of control | dose: 100.0 mg/kg/injection, schedule: Q01DX009 (ip), vehicle: other 98 % of control and 87 % of control

Cc1cc(C(=O)NNC(C)Cc2ccccc2)no1 (stereo not drawn)
inactive: dose: 4.6 mg/kg/injection, schedule: Q01DX009 (ip), vehicle: Klucel (hydroxypropylcellulose) (HPC) 94 % of control | dose: 9.3 mg/kg/injection, schedule: Q01DX009 (ip), vehicle: Klucel (hydroxypropylcellulose) (HPC) 94 % of control | dose: 18.75 mg/kg/injection, schedule: Q01DX009 (ip), vehicle: Klucel (hydroxypropylcellulose) (HPC) 97 % of control | dose: 37.5 mg/kg/injection, schedule: Q01DX009 (ip), vehicle: Klucel (hydroxypropylcellulose) (HPC) 97 % of control

O=C(COc1ccc(Cl)c(Cl)c1)Nc1ccc[n+](CC(=O)Nc2ccc(S(=O)(=O)F)cc2)c1
inactive: [11] 87 % of control | [12] 87 % of control | [13] 89 % of control

COc1ccc2c(c1)C13CCCCC1C(C2)N(CC1(c2ccccc2)CC1)CC3 (stereo not drawn)
inactive: [6] 98 % of control | [7] 96 % of control | [8] 90 % of control | [9] 93 % of control | [10] 101 % of control

O=C/C(Br)=C\c1ccccc1
inactive: dose: 25.0 mg/kg/injection, schedule: Q01DX009 (ip), vehicle: Klucel (hydroxypropylcellulose) (HPC) 95 % of control | dose: 25.0 mg/kg/injection, schedule: Q04DX003 (ip), vehicle: Klucel (hydroxypropylcellulose) (HPC) 100 % of control | dose: 50.0 mg/kg/injection, schedule: Q01DX009 (ip), vehicle: Klucel (hydroxypropylcellulose) (HPC) 90 % of control | dose: 50.0 mg/kg/injection, schedule: Q04DX003 (ip), vehicle: Klucel (hydroxypropylcellulose) (HPC) 100 % of control | [6] 105 % of control | [7] 93 % of control and 105 % of control
